# According to PubChem BioAssay AID330 (DTP/NCI, 2004):
# “And” between values parts separate entries of the source, which are not always exact repeats. Identical values can stand only once. Inconclusive results and toxic doses are left out.
# Tested on: P388 leukemia ip, CD2F1 mice, survival T/C
# Test: NCI In Vivo Anticancer Drug Screen. Data for tumor model P388 Leukemia (intraperitoneal) in CD2F1 (CDF1) mice
# Conditions: endpoint: median survival time, higher = longer survival
# Procedure, shortened: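 Mice carrying the transplanted tumor received test compound or vehicle. Survival was recorded in each group, and the value is the treated-group measurement divided by that of the vehicle-treated control group.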
# [1] = dose: 100.0 mg/kg/injection, schedule: Q04DX003 (ip), vehicle: saline with Tween-80
# [2] = dose: 200.0 mg/kg/injection, schedule: Q04DX003 (ip), vehicle: saline with Tween-80
# [3] = dose: 50.0 mg/kg/injection, schedule: Q01DX005 (ip), vehicle: saline with Tween-80
# [4] = dose: 100.0 mg/kg/injection, schedule: Q01DX005 (ip), vehicle: saline with Tween-80
# [5] = dose: 200.0 mg/kg/injection, schedule: Q01DX005 (ip), vehicle: saline with Tween-80
# [6] = dose: 50.0 mg/kg/injection, schedule: Q01DX009 (ip), vehicle: saline with Tween-80
# [7] = dose: 100.0 mg/kg/injection, schedule: Q01DX009 (ip), vehicle: saline with Tween-80
# [8] = dose: 200.0 mg/kg/injection, schedule: Q01DX009 (ip), vehicle: saline with Tween-80
# [9] = dose: 60.0 mg/kg/injection, schedule: Q01DX005 (ip), vehicle: saline with Tween-80
# [10] = dose: 120.0 mg/kg/injection, schedule: Q01DX005 (ip), vehicle: saline with Tween-80
# [11] = dose: 240.0 mg/kg/injection, schedule: Q01DX005 (ip), vehicle: saline with Tween-80
# [12] = dose: 25.0 mg/kg/injection, schedule: Q01DX009 (ip), vehicle: saline with Tween-80
# [13] = dose: 50.0 mg/kg/injection, schedule: Q01DX009 (ip), vehicle: Klucel (hydroxypropylcellulose) (HPC)
# [14] = dose: 100.0 mg/kg/injection, schedule: Q01DX009 (ip), vehicle: Klucel (hydroxypropylcellulose) (HPC)
# [15] = dose: 200.0 mg/kg/injection, schedule: Q01DX009 (ip), vehicle: Klucel (hydroxypropylcellulose) (HPC)
structure (smiles),measurement,setting,value
c1ccc(OCC(COc2ccccc2)(COc2ccccc2)COc2ccccc2)cc1,T/C,"dose: 7.5 mg/kg/injection, schedule: Q01DX009 (ip), vehicle: saline with Tween-80",107 % of control
same,T/C,"dose: 15.0 mg/kg/injection, schedule: Q01DX009 (ip), vehicle: saline with Tween-80",107 % of control
same,T/C,"dose: 30.0 mg/kg/injection, schedule: Q01DX009 (ip), vehicle: saline with Tween-80",104 % of control
CC(C)(C)C(O)c1cccnc1 (stereo not drawn),T/C,[1],110 % of control
same,T/C,[2],101 % of control
CCc1c(CO)c(CO)c(-c2ccccc2)n1CCn1c(CC)c(CO)c(CO)c1-c1ccccc1,T/C,"dose: 100.0 mg/kg/injection, schedule: Q01DX001 (ip), vehicle: saline with Tween-80",96 % of control
same,T/C,"dose: 200.0 mg/kg/injection, schedule: Q01DX001 (ip), vehicle: saline with Tween-80",88 % of control
same,T/C,"dose: 400.0 mg/kg/injection, schedule: Q01DX001 (ip), vehicle: saline with Tween-80",96 % of control
O=NN(CCF)C(=O)NCCF,T/C,"dose: 0.11 mg/kg/injection, schedule: Q01DX009 (ip), vehicle: saline",109 % of control
same,T/C,"dose: 0.16 mg/kg/injection, schedule: Q01DX009 (ip), vehicle: saline",109 % of control
same,T/C,"dose: 0.25 mg/kg/injection, schedule: Q01DX009 (ip), vehicle: saline",122 % of control
same,T/C,"dose: 2.5 mg/kg/injection, schedule: Q01DX009 (ip), vehicle: saline",236 % of control
COC(=O)/C=C/C(=O)NC(O)C(Cl)(Cl)Cl (stereo not drawn),T/C,[3],102 % of control
same,T/C,[4],107 % of control
same,T/C,[5],102 % of control
O=C1N=CC2(N=N2)C(=O)N1,T/C,"dose: 3.75 mg/kg/injection, schedule: Q01DX005 (ip), vehicle: saline with Tween-80",161 % of control
same,T/C,"dose: 7.5 mg/kg/injection, schedule: Q01DX005 (ip), vehicle: saline with Tween-80",155 % of control and 168 % of control
same,T/C,"dose: 15.0 mg/kg/injection, schedule: Q01DX005 (ip), vehicle: saline with Tween-80",178 % of control and 190 % of control
CCC(O)(CC)/C(C)=N/O,T/C,[6],91 % of control
same,T/C,[7],89 % of control
same,T/C,[8],94 % of control
NC(CCCNc1ccc(O)cc1)C(=O)O (stereo not drawn),T/C,"dose: 50.0 mg/kg/injection, schedule: Q01DX005 (ip), vehicle: saline",100 % of control
same,T/C,"dose: 100.0 mg/kg/injection, schedule: Q01DX005 (ip), vehicle: saline",99 % of control and 104 % of control
same,T/C,"dose: 200.0 mg/kg/injection, schedule: Q01DX005 (ip), vehicle: saline",98 % of control
CCOC(=O)C(CC(C)C)NC(=O)c1cnc2ccccc2c1 (stereo not drawn),T/C,[9],104 % of control
same,T/C,[10],103 % of control
same,T/C,[11],99 % of control
C=CCC(C(=O)OC)c1ccccc1 (stereo not drawn),T/C,"dose: 0.4 mg/kg/injection, schedule: Q01DX009 (ip), vehicle: saline with Tween-80",99 % of control
same,T/C,"dose: 0.8 mg/kg/injection, schedule: Q01DX009 (ip), vehicle: saline with Tween-80",98 % of control
same,T/C,"dose: 1.6 mg/kg/injection, schedule: Q01DX009 (ip), vehicle: saline with Tween-80",104 % of control
BrC1c2ccccc2-c2nc3ccccc3nc21 (stereo not drawn),T/C,"dose: 12.5 mg/kg/injection, schedule: Q01DX005 (ip), vehicle: Klucel (hydroxypropylcellulose) (HPC)",112 % of control
same,T/C,"dose: 25.0 mg/kg/injection, schedule: Q01DX005 (ip), vehicle: Klucel (hydroxypropylcellulose) (HPC)",99 % of control
same,T/C,"dose: 50.0 mg/kg/injection, schedule: Q01DX005 (ip), vehicle: Klucel (hydroxypropylcellulose) (HPC)",103 % of control and 115 % of control
NC(=O)NN1CC(=O)N(c2ccccc2)CC1=O,T/C,[6],97 % of control
same,T/C,[7],100 % of control
same,T/C,[8],95 % of control
CCCCNC(=O)C(C)OC(C)=O (stereo not drawn),T/C,[3],96 % of control
same,T/C,[4],99 % of control
same,T/C,[5],96 % of control
Cc1cc(NC(=S)SCc2ccc3c(c2)OCO3)ccc1Br,T/C,"dose: 25.0 mg/kg/injection, schedule: Q01DX009 (ip), vehicle: Klucel (hydroxypropylcellulose) (HPC)",102 % of control and 107 % of control
same,T/C,[12],96 % of control
same,T/C,[13],107 % of control and 115 % of control and 116 % of control
same,T/C,[6],91 % of control
same,T/C,"dose: 50.0 mg/kg/injection, schedule: Q01DX009 (ip), vehicle: suspension in saline",93 % of control
same,T/C,[14],107 % of control and 115 % of control and 118 % of control
same,T/C,[7],100 % of control
same,T/C,"dose: 100.0 mg/kg/injection, schedule: Q01DX009 (ip), vehicle: suspension in saline",104 % of control
same,T/C,[15],107 % of control
same,T/C,[8],100 % of control
same,T/C,"dose: 200.0 mg/kg/injection, schedule: Q01DX009 (ip), vehicle: suspension in saline",93 % of control
CCOC(=O)c1ccccc1NC(=O)C1C2C=CC(C2)C1C(=O)O (stereo not drawn),T/C,"dose: 50.0 mg/kg/injection, schedule: Q01DX009 (ip), vehicle: saline + alcohol",103 % of control
same,T/C,"dose: 100.0 mg/kg/injection, schedule: Q01DX009 (ip), vehicle: saline + alcohol",104 % of control
same,T/C,"dose: 200.0 mg/kg/injection, schedule: Q01DX009 (ip), vehicle: saline + alcohol",97 % of control
Cc1cccc(C2=NC(=C3CCCCC3)C(=O)O2)c1,T/C,[9],101 % of control
same,T/C,[10],100 % of control
same,T/C,[11],100 % of control
C/C=C1/CN2C3C[C@H]1C(CO)(C(=O)OC)[C@H]2Cc1c3n(C)c2ccccc12 (stereo partly drawn),T/C,"dose: 10.0 mg/kg/injection, schedule: Q01DX009 (ip), vehicle: Klucel (hydroxypropylcellulose) (HPC)",100 % of control
same,T/C,"dose: 20.0 mg/kg/injection, schedule: Q01DX009 (ip), vehicle: Klucel (hydroxypropylcellulose) (HPC)",101 % of control
same,T/C,"dose: 40.0 mg/kg/injection, schedule: Q01DX009 (ip), vehicle: Klucel (hydroxypropylcellulose) (HPC)",104 % of control
same,T/C,"dose: 80.0 mg/kg/injection, schedule: Q01DX009 (ip), vehicle: Klucel (hydroxypropylcellulose) (HPC)",100 % of control
same,T/C,"dose: 160.0 mg/kg/injection, schedule: Q01DX009 (ip), vehicle: Klucel (hydroxypropylcellulose) (HPC)",94 % of control
Cc1oc(NC(=O)C(=O)O)c(C#N)c1C,T/C,[6],88 % of control
same,T/C,[7],102 % of control
same,T/C,[8],88 % of control
O=C1OC2(C=C(O)C1=O)CCCCC2,T/C,"dose: 60.0 mg/kg/injection, schedule: Q01DX005 (ip), vehicle: Klucel (hydroxypropylcellulose) (HPC)",106 % of control
same,T/C,"dose: 120.0 mg/kg/injection, schedule: Q01DX005 (ip), vehicle: Klucel (hydroxypropylcellulose) (HPC)",107 % of control
same,T/C,"dose: 240.0 mg/kg/injection, schedule: Q01DX005 (ip), vehicle: Klucel (hydroxypropylcellulose) (HPC)",116 % of control
CC1(C)OP2(O)(OC(C)(C)c3ccccc32)c2ccccc21,T/C,[13],99 % of control
same,T/C,[14],102 % of control
same,T/C,[15],104 % of control
Clc1ccc2[nH]c3nc4ccccc4nc3c2c1,T/C,[12],100 % of control
same,T/C,[6],105 % of control
same,T/C,[1],90 % of control
same,T/C,[2],100 % of control
same,T/C,"dose: 400.0 mg/kg/injection, schedule: Q04DX003 (ip), vehicle: saline with Tween-80",104 % of control
N#CCc1ccc(N(CCO)CCO)cc1,T/C,"dose: 12.5 mg/kg/injection, schedule: Q01DX005 (ip), vehicle: saline with Tween-80",102 % of control
same,T/C,"dose: 25.0 mg/kg/injection, schedule: Q01DX005 (ip), vehicle: saline with Tween-80",101 % of control
same,T/C,[3],101 % of control and 104 % of control
C/C=C1\CN2C3CC1C1(CN4c5c(OC)cc(OC)c(OC)c5C56CC7C(COC45O1)C1CC6N7C/C1=C/COC)C2CC31C(=O)Nc2c(OC)cc(OC)c(OC)c21 (stereo not drawn),T/C,"dose: 1.5 mg/kg/injection, schedule: Q01DX005 (ip), vehicle: Klucel (hydroxypropylcellulose) (HPC)",97 % of control
same,T/C,"dose: 3.0 mg/kg/injection, schedule: Q01DX005 (ip), vehicle: Klucel (hydroxypropylcellulose) (HPC)",97 % of control
same,T/C,"dose: 6.0 mg/kg/injection, schedule: Q01DX005 (ip), vehicle: Klucel (hydroxypropylcellulose) (HPC)",108 % of control
same,T/C,"dose: 12.0 mg/kg/injection, schedule: Q01DX005 (ip), vehicle: Klucel (hydroxypropylcellulose) (HPC)",96 % of control
O=C1NC(=O)C2(CC3CCCC(C2)N3c2ccccc2)N1 (stereo not drawn),T/C,"dose: 100.0 mg/kg/injection, schedule: Q04DX003 (ip), vehicle: DMSO",95 % of control
same,T/C,"dose: 200.0 mg/kg/injection, schedule: Q04DX003 (ip), vehicle: DMSO",89 % of control
same,T/C,"dose: 400.0 mg/kg/injection, schedule: Q04DX003 (ip), vehicle: DMSO",91 % of control
CC1(C)S/C(=C\c2ccccc2)c2nc3ccccc3c(=O)n21,T/C,[9],97 % of control
same,T/C,[10],91 % of control
same,T/C,[11],89 % of control
